Legend:
[1] = tested on: VSV-G pseudotyped HIV-1 luciferase reporter virus (HIVluc); format: cell-based
HIV-1NL4-3 = assay: HIV-1 NL4-3 replication assay in SupT1 cells (p24 ELISA)
[2] = molecular target: recombinant HIV-1 protease (Human immunodeficiency virus type 1 group M subtype B, UniProt P03366); assay: HIV-1 protease in vitro activity assay (FRET peptide)
[3] = Solubility (UV-vis spectroscopy, solvents); conditions: saturated solutions

| Compound | reduction of infectivity / inhibition [1] | Effect on HIV-1 infectivity (FIG. 1) [1] | infectivity as compared to control (100%) infectivity [1] | Effect on HIV-1 replication (FIG. 9C) (HIV-1NL4-3; 3 μM at time of infection, washed after 24 h) | Effect on HIV-1NL4-3 replication (FIG. 3) (HIV-1NL4-3; 6 μM for 24 hrs, given 24 hours after infection, p24 followed seven additional days) | inhibition of protease activity ([2]; at 80 μM) | inhibition of protease activity ([2]; at 40 (unit not given)) | solubility in H2O:DMSO (9:1) [3] |
| --- | --- | --- | --- | --- | --- | --- | --- | --- |
| CC(C)(C)NC(=O)[C@@H]1CN(Cc2cccnc2)CCN1C[C@@H](O)C[C@@H](Cc1ccccc1)C(=O)N[C@H]1c2ccccc2C[C@H]1O [Indinavir, reference compound] | 96.6% | – | – | – | – | – | – | – |
| mixture of α, β and γ-N—N-dimethyl[70]fulleropyrrolidinium iodide [Compound 2a] | 72% | potently blocked the infectivity of HIV-1 | 0.026% | potent inhibitory effect | able to impair viral replication | – | – | – |
| α-N,N-dimethyl[70]fulleropyrrolidinium iodide [Compound 2b] | 52% | potently blocked the infectivity of HIV-1 | 0.047% | – | – | 65% | 24% | – |
| β-N,N-dimethyl[70]fulleropyrrolidinium iodide [Compound 2c] | 71% | potently blocked the infectivity of HIV-1 | 0.003% | – | – | – | – | 0.252 nM |

From patent US10358419B2, “1,3-dipolar [70]fulleropyrrolidinium iodide derivatives” (priority 2015, dated 2019)
